{"source": "patent US20260232582A1", "about": "“PHARMACEUTICAL COMPOSITION OF ENSIFENTRINE WITH PHARMACEUTICALLY ACCEPTABLE PROPELLANTS” (CIPLA LIMITED, priority 2023, published 2026)", "origin": "cited, not measured here", "key": {"subjects": {"test_system": "subjects", "conditions": "clinical trials involving more than 2,200 subjects"}, "COPD patients": {"test_system": "COPD patients", "conditions": "Phase 2; DPI and pMDI formulations"}}, "data": [{"smiles": "COc1cc2c(cc1OC)-c1c/c(=N\\c3c(C)cc(C)cc3C)n(CCNC(N)=O)c(=O)n1CC2", "note": "[Ensifentrine]", "values": [{"measurement": "Tolerability in clinical trials", "setting": "subjects", "result": "well tolerated"}, {"measurement": "Lung function in COPD patients", "setting": "COPD patients", "result": "significant improvements in lung function"}, {"measurement": "Primary endpoint (improvements in lung function)", "setting": "COPD; nebulized, both ENHANCE-1 and ENHANCE-2 trials", "result": "met the primary endpoint"}, {"measurement": "Rate and risk of COPD exacerbations", "setting": "COPD; pooled analysis from ENHANCE-1 and ENHANCE-2", "result": "significantly reduced"}]}]}
